Data from PubChem BioAssay (NCI).
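Grown in 96-well plates, cells were treated for 48 hours with each compound at five concentrations. Insufficient inhibition: endpoint recorded as highest concentration tested. At the GI50, growth is halved. At the TGI there is no net growth.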

Tested on: MDA-MB-468 breast
Assay: growth of human tumour cells (NCI), 48 h

SMILES	GI50 [nM]	TGI [nM]
O=C(Nc1n[nH]c2nc(-c3ccco3)ccc12)C1CC1	> 25000	> 25000
O=C(O)C(CSC(c1ccccc1)(c1ccccc1)c1ccccc1)N=Cc1cccs1 (configuration not stated)	232	922
C=C1C(=O)O[C@H]2[C@H]1CC/C(Cn1cc(Cn3ccc4ccccc43)nn1)=C\CC[C@@]1(C)O[C@@H]21	717	2480
COc1ccc(/C=C2\CN(Cc3cn(CCCNc4ccnc5cc(Cl)ccc45)nn3)C/C(=C\c3ccc(OC)c(OC)c3)C2=O)cc1OC	772	2490
CN(C)CCCN(c1nc(C(Cl)(Cl)Cl)ns1)c1nc(C(Cl)(Cl)Cl)ns1	1660	3110
CCN(CC)c1ccc2c(c1)Oc1nc(N)c(C#N)c(N)c1C2Sc1ccc(C)cc1 (configuration not stated)	1620	3140
COc1ccc(/C(C)=C(\c2ccc(Cl)cc2)c2ccc(OCCN3CCCC3)cc2)cc1F	3350	7180
c1cc(OCCN2CCCCCC2)ccc1CNc1ccc2nc(CCC3CCCCC3)[nH]c2c1	1550	4020
CN[C@]12CC3(C=CC(=O)C=C3)O[C@@]1(Cc1ccc(OC)cc1)N(C)C(=O)N2	1250	3500
NC1=C(Cl)C(=O)c2ccc(S(N)(=O)=O)cc2C1=O	181	486
O=C1/C(=C\C(Cl)=C/c2ccc([N+](=O)[O-])cc2)SC(=S)N1CCc1ccc(O)cc1	405	1740
COc1cc(/C=C2\CN(C)C/C(=C\c3cc(OC)c(OC)c(OC)c3)C2=O)cc(OC)c1OC	266	849
O=C1OCc2c1cc(F)cc2[N+](=O)[O-]	> 100000	> 100000
CN1CCC[C@@H]1CCO[C@](C)(c1ccccc1)c1ccc(Cl)cc1	1660	3510
N#CC(=S)Nc1ccc(Cl)c(Cl)c1	6100	52200
Cc1c2c(nn1C(=O)c1nn(-c3ccc(Cl)cc3)cc1O)-c1ccccc1CC2	250	> 58200
